In ChEMBL document CHEMBL4725405, “Synthesis and evaluation of 17α-triazolyl and 9α-cyano derivatives of estradiol” (Bioorg Med Chem, 2020):

How the values were obtained:
Estrogen receptor [1] = target: T1, Estrogen receptor (Homo sapiens, UniProt P03372)
T1 sequence (P03372 whole entry): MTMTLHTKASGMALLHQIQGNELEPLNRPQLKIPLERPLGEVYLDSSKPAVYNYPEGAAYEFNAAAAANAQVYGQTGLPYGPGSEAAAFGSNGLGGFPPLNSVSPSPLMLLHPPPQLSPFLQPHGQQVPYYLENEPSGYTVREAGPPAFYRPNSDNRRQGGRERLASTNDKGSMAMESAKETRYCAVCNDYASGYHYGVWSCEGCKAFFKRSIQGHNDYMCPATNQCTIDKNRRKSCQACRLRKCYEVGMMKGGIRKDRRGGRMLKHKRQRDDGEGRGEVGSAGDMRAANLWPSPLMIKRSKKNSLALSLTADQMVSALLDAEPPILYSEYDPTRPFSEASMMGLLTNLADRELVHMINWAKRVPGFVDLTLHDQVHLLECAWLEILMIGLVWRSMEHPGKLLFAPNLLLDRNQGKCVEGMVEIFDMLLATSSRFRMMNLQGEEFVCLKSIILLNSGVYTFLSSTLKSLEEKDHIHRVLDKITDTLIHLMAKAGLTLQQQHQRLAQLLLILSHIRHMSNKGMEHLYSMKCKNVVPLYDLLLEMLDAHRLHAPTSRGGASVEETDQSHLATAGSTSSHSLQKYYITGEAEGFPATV
Description: Antagonist activity at full length human ERalpha receptor assessed as inhibition of estradiol-induced activation incubated for 22 to 24 hrs by cell based luciferase reporter gene assay

Estrogen receptor [2] = target: T1, Estrogen receptor; remark: listed apart in the source
Estrogen receptor beta [3] = target: T2, Estrogen receptor beta (Homo sapiens, UniProt Q92731)
Description: Antagonist activity at full length human ERbeta receptor assessed as inhibition of estradiol-induced activation incubated for 22 to 24 hrs by cell based luciferase reporter gene assay

Estrogen receptor beta [4] = target: T2, Estrogen receptor beta; remark: listed apart in the source
Description: Agonist activity at full length human ERbeta receptor assessed as transcriptional activity incubated for 22 to 24 hrs by cell based luciferase reporter gene assay

Estrogen receptor beta [5] = target: T2, Estrogen receptor beta; remark: listed apart in the source
Estrogen receptor beta [6] = target: T2, Estrogen receptor beta; assay: Displacement of fluormone from GST-tagged ERbeta receptor LBD (unknown origin) measured after 60 mins by TR-FRET competitive binding assay relative to control; conditions: filed as agonist
[7] = target: T3, Estrogen receptor (Homo sapiens) (UniProt P03372); assay: Agonist activity at full length human ERalpha receptor assessed as transcriptional activity incubated for 22 to 24 hrs by cell based luciferase reporter gene assay relative to control; conditions: filed as agonist
T3 sequence (whole entry): T1 sequence (P03372 whole entry)

T2 sequence (Q92731 whole entry): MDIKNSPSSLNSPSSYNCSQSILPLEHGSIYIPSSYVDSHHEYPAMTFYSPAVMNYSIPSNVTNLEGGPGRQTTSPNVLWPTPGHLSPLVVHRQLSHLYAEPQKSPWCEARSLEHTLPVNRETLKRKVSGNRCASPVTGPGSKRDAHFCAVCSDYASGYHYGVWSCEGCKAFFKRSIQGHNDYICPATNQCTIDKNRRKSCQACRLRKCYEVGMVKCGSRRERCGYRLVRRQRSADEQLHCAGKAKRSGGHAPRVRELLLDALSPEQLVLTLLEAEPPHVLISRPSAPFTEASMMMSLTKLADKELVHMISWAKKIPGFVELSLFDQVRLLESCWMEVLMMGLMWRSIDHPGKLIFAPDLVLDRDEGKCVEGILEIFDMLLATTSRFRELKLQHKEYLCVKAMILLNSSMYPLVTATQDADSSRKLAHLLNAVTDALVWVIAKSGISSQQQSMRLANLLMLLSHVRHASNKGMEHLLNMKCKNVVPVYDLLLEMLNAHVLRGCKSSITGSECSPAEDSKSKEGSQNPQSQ

C[C@]12CC[C@@H]3c4ccc(O)cc4CC[C@H]3[C@@H]1CC[C@@]2(O)c1cn(-c2ccccc2)nn1
EC50 (Estrogen receptor [1]): > 1000 nM
EC50 (Estrogen receptor [2]): 5 nM

C#C[C@]1(O)CC[C@H]2[C@@H]3CCc4cc(O)ccc4[C@@]3(C#N)CC[C@@]21C
EC50 (Estrogen receptor [1]): > 10000 nM
EC50 (Estrogen receptor beta [3]): > 10000 nM
EC50 (Estrogen receptor [2]): 22 nM
EC50 (Estrogen receptor beta [4]): 14 nM
EC50 (Estrogen receptor beta [5]): 51 nM

C[C@]12CC[C@]3(C#N)c4ccc(O)cc4CC[C@H]3[C@@H]1CC[C@@]2(O)c1cn(CCO)nn1
EC50 (Estrogen receptor beta [5]): 4400 nM

C[C@]12CC[C@@H]3c4ccc(O)cc4CC[C@H]3[C@@H]1CC[C@@]2(O)c1cn(-c2cccc(O)c2)nn1
EC50 (Estrogen receptor [1]): > 1000 nM
EC50 (Estrogen receptor beta [3]): > 10000 nM
EC50 (Estrogen receptor [2]): 68 nM
Activity (Estrogen receptor beta [6]): 60%
EC50 (Estrogen receptor beta [4]): 21 nM
Activity [7]: 46%
EC50 (Estrogen receptor beta [5]): 12 nM

C[C@]12CC[C@@H]3c4ccc(O)cc4CC[C@H]3[C@@H]1CC[C@@]2(O)c1cn(-c2ccc(O)cc2)nn1
EC50 (Estrogen receptor [1]): > 10000 nM
EC50 (Estrogen receptor beta [3]): > 10000 nM
EC50 (Estrogen receptor [2]): 0.87 nM
EC50 (Estrogen receptor beta [4]): 0.81 nM
EC50 (Estrogen receptor beta [5]): 0.65 nM

C[C@]12CC[C@]3(C#N)c4ccc(O)cc4CC[C@H]3[C@@H]1CCC2=O
EC50 (Estrogen receptor [1]): > 10000 nM
EC50 (Estrogen receptor beta [3]): > 5000 nM
EC50 (Estrogen receptor [2]): 88 nM
EC50 (Estrogen receptor beta [4]): 9 nM
EC50 (Estrogen receptor beta [5]): 78 nM

C[C@]12CC[C@@H]3c4ccc(O)cc4CC[C@H]3[C@@H]1CC[C@@]2(O)c1cn(CCO)nn1
EC50 (Estrogen receptor [1]): > 10000 nM
EC50 (Estrogen receptor beta [3]): > 10000 nM
EC50 (Estrogen receptor [2]): 149 nM
EC50 (Estrogen receptor beta [4]): 16 nM
EC50 (Estrogen receptor beta [5]): 50 nM

C[C@]12CC[C@]3(C#N)c4ccc(O)cc4CC[C@H]3[C@@H]1CC[C@@H]2O
EC50 (Estrogen receptor [1]): > 5000 nM
EC50 (Estrogen receptor beta [3]): > 25 nM
EC50 (Estrogen receptor [2]): 0.38 nM
EC50 (Estrogen receptor beta [4]): 0.029 nM
EC50 (Estrogen receptor beta [5]): 0.27 nM
